In patent US20240158446A1, “CYCLIC COMPOUND HAVING SELECTIVE INHIBITORY ACTION ON KRAS OVER HRAS AND NRAS” (CHUGAI SEIYAKU KABUSHIKI KAISHA, priority 2021, published 2024):

Legend:
[1] = biological target: GDP-bound HRAS wild-type protein (Homo sapiens, UniProt P01112); experiment: Binding to HRAS by surface plasmon resonance (SPR), Single Cycle Kinetics; conditions: for HRAS/KRAS (ratio of KD value for HRAS to KD value for KRAS) / HRAS/KRAS (ratio of KD value with respect to HRAS to KD value with respect to KRAS): SPR, GDP-bound HRAS wild-type protein vs GDP-bound KRAS wild-type protein; for HRAS/KRAS (ratio of KD value with respect to GDP-bound HRAS wild-type protein to KD value with respect to KRAS): SPR KD ratio HRAS/KRAS, class symbols
GDP-bound HRAS wild-type protein, sequence (P01112 whole entry): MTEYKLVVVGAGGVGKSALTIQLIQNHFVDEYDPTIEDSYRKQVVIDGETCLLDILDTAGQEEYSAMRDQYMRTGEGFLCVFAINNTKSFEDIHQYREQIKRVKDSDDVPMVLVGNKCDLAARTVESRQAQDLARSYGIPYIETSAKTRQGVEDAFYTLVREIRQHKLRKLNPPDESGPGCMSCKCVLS

[2] = biological target: GDP-bound NRAS wild-type protein (Homo sapiens, UniProt P01111); experiment: Binding to NRAS by surface plasmon resonance (SPR), Single Cycle Kinetics; conditions: for NRAS/KRAS (ratio of KD value for NRAS to KD value for KRAS) / NRAS/KRAS (ratio of KD value with respect to NRAS to KD value with respect to KRAS): SPR, GDP-bound NRAS wild-type protein vs GDP-bound KRAS wild-type protein; for NRAS/KRAS (ratio of KD value with respect to GDP-bound NRAS wild-type protein to KD value with respect to KRAS): SPR KD ratio NRAS/KRAS, class symbols
GDP-bound NRAS wild-type protein, sequence (P01111 whole entry): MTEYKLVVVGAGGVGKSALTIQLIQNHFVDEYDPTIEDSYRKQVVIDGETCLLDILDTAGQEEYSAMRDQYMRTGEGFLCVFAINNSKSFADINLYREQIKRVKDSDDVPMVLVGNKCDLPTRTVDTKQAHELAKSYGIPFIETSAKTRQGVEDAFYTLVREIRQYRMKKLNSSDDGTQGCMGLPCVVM

SMILES | HRAS/KRAS (ratio of KD value for HRAS to KD value for KRAS) [1] | NRAS/KRAS (ratio of KD value for NRAS to KD value for KRAS) [2] | other results
CCC[C@H]1C(=O)N[C@@H]([C@H](C)CC)C(=O)N(C)CC(=O)N(C)[C@H]2C/C=C\CCN(C2=O)[C@@H](Cc2ccc(C)cc2)C(=O)N(C)CC(=O)N[C@@H](CCc2ccc(C(F)(F)F)c(Cl)c2)C(=O)N2C[C@H](OCC)C[C@H]2C(=O)NC2(CC(C)(C)C2)C(=O)N(C)[C@@H](C2CCCC2)C(=O)N(C)[C@H](C(=O)N(C)C)CC(=O)N1C [PP2221] | A (a compound having 10 or more and less than 20 is denoted as A) | A (a compound having 10 or more and less than 20 is denoted as A) | –
CCC[C@H]1C(=O)N[C@@H]([C@@H](C)CC)C(=O)N(C2CC2)CC(=O)N(C)[C@H]2C/C=C\CCN(C2=O)[C@@H](Cc2ccc(C)cc2)C(=O)N(C)CC(=O)N[C@@H](CCc2cc(F)c(CC)c(OC)c2)C(=O)N2C[C@H](OCC)C[C@H]2C(=O)NC2(CC(C)(C)C2)C(=O)N(C)[C@@H](C2CCCC2)C(=O)N(C)[C@H](C(=O)N(C)C)CC(=O)N1C [PP2872] | – | – | HRAS/KRAS (ratio of KD value with respect to GDP-bound HRAS wild-type protein to KD value with respect to KRAS) [1]: A (a compound having 10 or more and less than 20 is denoted as A); NRAS/KRAS (ratio of KD value with respect to GDP-bound NRAS wild-type protein to KD value with respect to KRAS) [2]: A (a compound having 10 or more and less than 20 is denoted as A)
CCC[C@H]1C(=O)N[C@@H]([C@@H](C)CC)C(=O)N(CCC)CC(=O)N(C)[C@H]2C/C=C\CCN(C2=O)[C@@H](Cc2ccc(C)cc2)C(=O)N(C)CC(=O)N[C@@H](CCc2cc(F)c(C(F)(F)F)c(F)c2)C(=O)N2C[C@H](OCC)C[C@H]2C(=O)NC2(CC(C)(C)C2)C(=O)N(C)[C@@H](C2CCCC2)C(=O)N(C)[C@H](C(=O)N(C)C)CC(=O)N1C [PP2108] | A (a compound having 10 or more and less than 20 is denoted as A) | A (a compound having 10 or more and less than 20 is denoted as A) | –
CCO[C@@H]1C[C@H]2C(=O)NC3(CCC3)C(=O)N(C)[C@@H](C(CC)CC)C(=O)N(C)[C@H](C(=O)N3CCOCC3)CC(=O)N(C)[C@@H](CC(C)C)C(=O)N[C@@H]([C@@H](C)CC)C(=O)N(C)CC(=O)N(C)[C@H]3CCCCCN(C3=O)[C@@H](Cc3ccc(C(F)(F)F)cc3)C(=O)N(C)CC(=O)N[C@@H](CCc3cc(F)c(C(F)(F)F)c(F)c3)C(=O)N2C1 [PP0820] | B (a compound having 3 or more and less than 10 is denoted as B) | A (a compound having 10 or more and less than 20 is denoted as A) | –
CCO[C@@H]1C[C@H]2C(=O)NC3(CCC3)C(=O)N(C)[C@@H](C3CCCC3)C(=O)N(C)[C@H](C(=O)N(C)C)CC(=O)N(C)[C@@H](CC(C)C)C(=O)N[C@@H]([C@@H](C)CC)C(=O)N(C)CC(=O)N(C)[C@H]3CCCCCN(C3=O)[C@@H](Cc3ccc(C(F)(F)F)cc3)C(=O)N(C)CC(=O)N[C@@H](CCc3cc(F)c(C(F)(F)F)c(F)c3)C(=O)N2C1 [PP0469] | – | – | HRAS/KRAS (ratio of KD value with respect to HRAS to KD value with respect to KRAS) [1]: B (a compound having 3 or more and less than 10 is denoted as B); NRAS/KRAS (ratio of KD value with respect to NRAS to KD value with respect to KRAS) [2]: B (a compound having 3 or more and less than 10 is denoted as B)
CC[C@H](C)[C@@H]1NC(=O)[C@H](CC(C)C)N(C)C(=O)C[C@@H](C(=O)N2CCOCC2)N(C)C(=O)[C@H](C2CCCC2)N(C)C(=O)C2(CCC2)NC(=O)[C@]2(C)CCCN2C(=O)[C@H](CCc2cc(F)c(C(F)(F)F)c(F)c2)NC(=O)CN(C)C(=O)[C@H](Cc2ccc(C(F)(F)F)cc2)N2CCCCC[C@@H](C2=O)N(C)C(=O)CN(C)C1=O [PP0817] | B (a compound having 3 or more and less than 10 is denoted as B) | A (a compound having 10 or more and less than 20 is denoted as A) | –
CC[C@H](C)[C@@H]1NC(=O)[C@H](CC(C)C)N(C)C(=O)C[C@@H](C(=O)N2CCOCC2)N(C)C(=O)[C@H](C2CCCC2)N(C)C(=O)C2(COC2)NC(=O)[C@@H]2CCCN2C(=O)[C@H](CCc2cc(F)c(C(F)(F)F)c(F)c2)NC(=O)CN(C)C(=O)[C@H](Cc2ccc(C(F)(F)F)cc2)N2CCCCC[C@@H](C2=O)N(C)C(=O)CN(C)C1=O [PP0501] | – | – | HRAS/KRAS (ratio of KD value with respect to HRAS to KD value with respect to KRAS) [1]: B (a compound having 3 or more and less than 10 is denoted as B); NRAS/KRAS (ratio of KD value with respect to NRAS to KD value with respect to KRAS) [2]: B (a compound having 3 or more and less than 10 is denoted as B)
CCO[C@@H]1C[C@H]2C(=O)NC3(CC(C)(C)C3)C(=O)N(C)[C@@H](C(CC)CC)C(=O)N(C)[C@H](C(=O)N(C)C)CC(=O)N(C)[C@@H](CC3CC3)C(=O)N[C@@H]([C@@H](C)CC)C(=O)N(C)CC(=O)N(C)[C@H]3C/C=C\CCN(C3=O)[C@@H](Cc3ccc(C)cc3)C(=O)N(C)CC(=O)N[C@@H](CCc3ccc(Cl)c(Cl)c3)C(=O)N2C1 [PP2182] | A (a compound having 10 or more and less than 20 is denoted as A) | AA (a compound having 20 or more is denoted as AA) | –
CCO[C@@H]1C[C@H]2C(=O)NC3(CCC3)C(=O)N(C)[C@@H](C3CCCC3)C(=O)N(C)[C@H](C(=O)N(C)C)CC(=O)N(C)[C@@H](CC(C)C)C(=O)N[C@@H]([C@@H](C)CC)C(=O)N(C)CC(=O)N(C)[C@H]3CC(C)=CCN(C3=O)[C@@H](Cc3ccc(C(F)(F)F)cc3)C(=O)N(C)CC(=O)N[C@@H](CCc3cc(F)c(C(F)(F)F)c(F)c3)C(=O)N2C1 [PP1032] | C (A compound having a KD ratio of 0.1 or more and less than 3 is denoted as C) | C (A compound having a KD ratio of 0.1 or more and less than 3 is denoted as C) | –
CCC[C@H]1C(=O)N[C@@H]([C@@H](C)CC)C(=O)N(C2CC2)CC(=O)N(C)[C@H]2C/C=C\CCN(C2=O)[C@@H](Cc2ccc(C)cc2)C(=O)N(C)CC(=O)N[C@@H](CCc2cc(F)c3c(c2)OCC3)C(=O)N2C[C@H](OCC)C[C@H]2C(=O)NC2(CC(C)(C)C2)C(=O)N(C)[C@@H](C2CCCC2)C(=O)N(C)[C@H](C(=O)N(C)C)CC(=O)N1C [PP2880] | – | – | HRAS/KRAS (ratio of KD value with respect to GDP-bound HRAS wild-type protein to KD value with respect to KRAS) [1]: A (a compound having 10 or more and less than 20 is denoted as A); NRAS/KRAS (ratio of KD value with respect to GDP-bound NRAS wild-type protein to KD value with respect to KRAS) [2]: A (a compound having 10 or more and less than 20 is denoted as A)
CCC[C@H]1C(=O)N[C@@H](C2CCCCC2)C(=O)N(C)CC(=O)N(C)[C@H]2C/C=C\CCN(C2=O)[C@@H](Cc2ccc(C)cc2)C(=O)N(C)CC(=O)N[C@@H](CCc2ccc(C(F)(F)F)c(Cl)c2)C(=O)N2C[C@H](OCC)C[C@H]2C(=O)NC2(CC(C)(C)C2)C(=O)N(C)[C@@H](C2CCCC2)C(=O)N(C)[C@H](C(=O)N(C)C)CC(=O)N1C [PP2998] | AA (a compound having 20 or more is denoted as AA) | A (a compound having 10 or more and less than 20 is denoted as A) | –
